Test results as given in patent US4966900A, “Cephalosporin β-lactam compound and medicinal composition” (priority 1986, dated 1990).
≈ marks a conversion by molar mass, not a printed value. Counter-ions that a name gives are not always drawn.

Assays:
Assay in all cases: MIC
[1] = system: E. cloacae 1Y247; type: cell-based; settings: Enterobacter cloacae, Table 6, read-out: MIC
Experimental: (§1) The minimum inhibition concentrations (MIC) of the compounds obtained in the respective examples described above were measured according to the standard method of Japanese Chemotherapy Association.

[2] = system: S. aureus IAA498; type: cell-based; settings: Staphylococcus aureus
Experimental: as §1

[3] = system: S. aureus Smith
[4] = system: E. coli ML4707
[5] = system: E. coli GN5482
[6] = system: K. pneumoniae 4at521
[7] = system: E. colacae GN7471
[8] = system: E. cloacae 908RN; settings: Enterobacter cloacae
[9] = system: C. freundii GN7391
[10] = system: S. marcescens GN10857
[11] = system: P. vulgaris GN7919
[12] = system: P. aeruginosa GN10362; settings: Pseudomonas aeruginosa, GN10362
[13] = system: P. aeruginosa 4au542
[14] = system: P. aeruginosa 5D58-1
[15] = system: P. cepacia OF189
[16] = system: P. maltophilia OF247; settings: Stenotrophomonas maltophilia
[17] = system: E. cloacae 5D52-2; settings: Enterobacter cloacae, 5D522
[18] = system: E. cloacae 5D63-2; settings: Enterobacter cloacae, 5D632
[19] = system: E. cloacae 1V25; settings: Enterobacter cloacae
[20] = system: C. freundii 5D60-1
[21] = system: C. freundii 1R523; settings: Citrobacter freundii, 1R523
[22] = system: C. freundii 1R524; settings: Citrobacter freundii, 1R524
[23] = system: C. freundii 1R526; settings: Citrobacter freundii, 1R526
[24] = system: C. freundii 1R527; settings: Citrobacter freundii, 1R527
[25] = system: C. freundii 1U589
[26] = system: C. freundii 1U692
[27] = Escherichia coli, ML4707, E. coli ML4707, Table 5
[28] = Escherichia coli, GN5482, E. coli GN5482, Table 5
[29] = Citrobacter freundii, GN7391, C. freundii GN7391, Table 5
[30] = Citrobacter freundii, GN7391, C. freundii GN7391, Table 6
[31] = Serratia marcescens, GN10857, S. marcescens GN10857, Table 5
[32] = Pseudomonas aeruginosa, 4AU542, P. aeruginosa 4au542, Table 5
[33] = Pseudomonas aeruginosa, 5D581, P. aeruginosa 5D58-1, Table 5
[34] = Burkholderia cepacia, OF189, P. cepacia OF189, Table 5

Row | Compound | MIC [1] [µg/mL] | MIC ([2]; Table 5) [µg/mL] | MIC ([3]; Staphylococcus aureus, Table 5) [µg/mL] | MIC [4, 27] [µg/mL] | MIC [5, 28] [µg/mL] | MIC ([6]; Klebsiella pneumoniae, 4AT521) [µg/mL] | MIC ([7]; Table 5) [µg/mL] | MIC ([8]; E. cloacae 908RN, Table 6) [µg/mL] | MIC ([8]; E. colacae 908RN, Table 5) [µg/mL] | MIC [9, 29] [µg/mL] | MIC [9, 30] [µg/mL] | MIC [10, 31] [µg/mL] | MIC ([11]; Proteus vulgaris, GN7919) [µg/mL] | MIC [12] [µg/mL] | MIC [13, 32] [µg/mL] | MIC [14, 33] [µg/mL] | MIC [15, 34] [µg/mL] | MIC ([16]; Table 5) [µg/mL] | MIC [17] [µg/mL] | MIC [18] [µg/mL] | also measured
1 | Cc1cc(SCC2=C(C(=O)O)N3C(=O)C(NC(=O)C(=NOC(C)(C)C(=O)NNC(=O)c4ccc(O)c(O)c4)c4csc(N)n4)C3SC2)n2nnnc2n1 (stereo not shown) [Example 29, 7-{2-[2-amino-1,3-thiazol-4-yl]-2-[1-(3-(3,4-dihydroxybenzoyl)carbazoyl)-1-methylethoxyimino]acetamide}-3-[(5-methyltetrazolo[1,5-a]pyrimidin-7-yl)thiomethyl]-3-cephem-4-carboxylic acid.hydrochloride] | 0.78 | 3.13 | 1.56 | < 0.006 | 0.025 | 0.012 | 1.56 | 3.13 | 6.25 | 6.25 | 0.012 | 0.39 | 6.25 | 0.39 | 0.78 | 0.39 | < 0.006 | 0.2 | 0.78 | 0.78 | MIC [19]: 3.13 µg/mL; MIC ([20]; Citrobacter freundii, 5D601): 0.39 µg/mL; MIC [21]: 0.2 µg/mL; MIC [22]: 0.78 µg/mL; MIC [23]: 0.2 µg/mL; MIC [24]: 0.78 µg/mL; MIC ([25]; Citrobacter freundii, 1U589): 0.78 µg/mL; MIC ([26]; Citrobacter freundii, 1U692): 12.5 µg/mL
2 | Cc1nc2ncnn2c(SCC2=C(C(=O)O)N3C(=O)C(NC(=O)C(=NOC(C)(C)C(=O)NNC(=O)c4ccc(O)c(O)c4)c4csc(N)n4)C3SC2)c1C (stereo not shown) [Example 39] | 1.56 (≈ 1.96 µM) | 12.5 (≈ 15.7 µM) | 12.5 (≈ 15.7 µM) | < 0.006 | < 0.006 | 0.012 (≈ 0.015 µM) | 1.56 (≈ 1.96 µM) | 3.13 (≈ 3.92 µM) | 1.56 (≈ 1.96 µM) | 3.13 (≈ 3.92 µM) | 3.13 (≈ 3.92 µM) | 0.2 (≈ 0.251 µM) | 0.78 (≈ 0.978 µM) | 0.2 (≈ 0.251 µM) | 0.39 (≈ 0.489 µM) | 0.78 (≈ 0.978 µM) | < 0.006 | 0.2 (≈ 0.251 µM) | 0.39 (≈ 0.489 µM) | 0.2 (≈ 0.251 µM) | MIC [19]: 12.5 µg/mL (≈ 15.7 µM); MIC ([20]; Citrobacter freundii, 5D601): 0.39 µg/mL (≈ 0.489 µM); MIC [21]: 0.1 µg/mL (≈ 0.125 µM); MIC [22]: 0.1 µg/mL (≈ 0.125 µM); MIC [23]: 0.1 µg/mL (≈ 0.125 µM); MIC [24]: 0.1 µg/mL (≈ 0.125 µM); MIC ([25]; Citrobacter freundii, 1U589): 0.39 µg/mL (≈ 0.489 µM); MIC ([26]; Citrobacter freundii, 1U692): 0.39 µg/mL (≈ 0.489 µM)
3 | Cc1nc2c(C(=O)O)cnn2c(SCC2=C(C(=O)O)N3C(=O)C(NC(=O)C(=NOC(C)(C)C(=O)NNC(=O)c4ccc(O)c(O)c4)c4csc(N)n4)C3SC2)c1C (stereo not shown) [Example 27, 7-{2-[2-Amino-1,3-thiazol-4-yl]-2-[1-(3-(3,4-dihydroxybenzoyl)carbazoyl)-1-methylethoxyimino]acetamide}-3-[(3-carboxy-5,6-dimethylpyrazolo[1,5-a]pyrimidin-7-yl)thiomethyl]-3-cephem-4-carboxylic acid.hydrochloride] | 0.78 | 50 | 25 | 0.012 | < 0.006 | < 0.006 | 0.78 | 0.78 | 0.39 | 0.78 | 0.78 | 0.1 | 0.39 | 0.05 | 0.2 | 0.2 | 0.012 | 0.2 | 0.1 | 0.2 | MIC [19]: 0.39 µg/mL; MIC ([20]; Citrobacter freundii, 5D601): 6.25 µg/mL; MIC [21]: 0.2 µg/mL; MIC [22]: 0.1 µg/mL; MIC [23]: 0.1 µg/mL; MIC [24]: 0.1 µg/mL; MIC ([25]; Citrobacter freundii, 1U589): 0.39 µg/mL; MIC ([26]; Citrobacter freundii, 1U692): 0.2 µg/mL
4 | Cc1cc(SCC2=C(C(=O)O)N3C(=O)C(NC(=O)C(=NOC(C)(C)C(=O)NNC(=O)c4ccc(O)c(O)c4)c4csc(N)n4)[C@H]3SC2)n2nc(C(F)(F)F)nc2n1 (stereo partly shown) [Example 55, 7-{2-[2-Amino-1,3-thiazol-4-yl]-2-[1-(3-(3,4-dihydroxybenzoyl)carbazoyl)-1-methylethoxyimino]acetamido}-3-[(5-methyl-2-trifluoromethyl-s-triazolo[1,5-a]pyrimidin-7-yl)-thiomethyl]-3-cephem-4-carboxylic acid] |  |  |  |  |  | 0.025 (≈ 0.0293 µM) |  |  |  |  |  |  | 1.56 (≈ 1.83 µM) | 0.39 (≈ 0.458 µM) |  |  |  |  |  |  | MIC ([2]; Table 7): 6.25 µg/mL (≈ 7.34 µM); MIC ([3]; Staphylococcus aureus, Table 7): 6.25 µg/mL (≈ 7.34 µM); MIC ([4]; Escherichia coli, ML4707, E. coli ML4707, Table 7): 0.05 µg/mL (≈ 0.0587 µM); MIC ([5]; Escherichia coli, GN5482, E. coli GN5482, Table 7): 0.025 µg/mL (≈ 0.0293 µM); MIC ([7]; Table 7): 25 µg/mL (≈ 29.3 µM); MIC ([8]; E. colacae 908RN, Table 7): 12.5 µg/mL (≈ 14.7 µM); MIC ([9]; Citrobacter freundii, GN7391, C. freundii GN7391, Table 7): 6.25 µg/mL (≈ 7.34 µM); MIC ([10]; Serratia marcescens, GN10857, S. marcescens GN10857, Table 7): 1.56 µg/mL (≈ 1.83 µM); MIC ([13]; Pseudomonas aeruginosa, 4AU542, P. aeruginosa 4au542, Table 7): 0.39 µg/mL (≈ 0.458 µM); MIC ([14]; Pseudomonas aeruginosa, 5D581, P. aeruginosa 5D58-1, Table 7): 0.39 µg/mL (≈ 0.458 µM); MIC ([15]; Burkholderia cepacia, OF189, P. cepacia OF189, Table 7): 0.05 µg/mL (≈ 0.0587 µM); MIC ([16]; Table 7): 1.56 µg/mL (≈ 1.83 µM)
5 | Cc1nc2nc(C(=O)O)nn2c(SCC2=C(C(=O)O)N3C(=O)C(NC(=O)C(=NOC(C)(C)C(=O)NNC(=O)c4ccc(O)c(O)c4)c4csc(N)n4)C3SC2)c1C (stereo not shown) [Example 41, 7-{2-[2-Amino-1,3-thiazol 4-yl]-2-[1-(3-(3,4-dihydroxybenzoyl)carbazoyl)-1-methylethoxyimino]acetamide}-3-[(2-carboxy-5,6-dimethyl-s-triazolo[1,5-a]pyrimidin-7-yl)-thiomethyl]-3-cephem-4-carboxylic acid.hydrochloride] | 0.39 | 50 | 25 | < 0.006 | < 0.006 | < 0.006 | 0.39 | 0.2 | 0.2 | 0.39 | 0.39 | 0.1 | 0.39 | 0.1 | 0.2 | 0.39 | < 0.006 | 0.1 | 0.05 | 0.1 | MIC [19]: 1.56 µg/mL; MIC ([20]; Citrobacter freundii, 5D601): 0.1 µg/mL; MIC [21]: 0.025 µg/mL; MIC [22]: 0.006 µg/mL; MIC [23]: 0.025 µg/mL; MIC [24]: 0.012 µg/mL; MIC ([25]; Citrobacter freundii, 1U589): 0.05 µg/mL; MIC ([26]; Citrobacter freundii, 1U692): 0.05 µg/mL
6 | cephazoline [CAZ, reference compound] |  |  |  |  |  |  | 3.13 |  |  |  |  |  |  |  |  |  |  |  |  |  | MIC ([3]; Table 5): 6.25 µg/mL; MIC ([4]; E. coli ML4707, Table 5): 0.05 µg/mL; MIC ([5]; E. coli GN5482, Table 5): 0.78 µg/mL; MIC ([6]; K. pneumoniae 4at521, Table 5): 0.10 µg/mL; MIC ([9]; C. freundii GN7391, Table 5): > 100.00 µg/mL; MIC ([9]; C. freundii GN7391, Table 6): > 100 µg/mL; MIC ([10]; S. marcescens GN10857, Table 5): 1.56 µg/mL; MIC ([11]; P. vulgaris Gn7919, Table 5): 1.56 µg/mL; MIC ([13]; P. aeruginosa 4au542, Table 5): 1.56 µg/mL; MIC ([14]; P. aeruginosa 5D58-1, Table 5): 0.78 µg/mL; MIC ([15]; P. cepacia OF189, Table 5): 3.13 µg/mL; MIC ([20]; C. freundii 5D60-1, Table 6): > 100 µg/mL; MIC ([20]; C. freundii 5D60-1, Table 8): > 100 µg/mL; MIC ([25]; C. freundii 1U589, Table 6): 100 µg/mL; MIC ([25]; C. freundii 1U589, Table 8): 100 µg/mL; MIC ([26]; C. freundii 1U692, Table 6): 100 µg/mL; MIC ([26]; C. freundii 1U692, Table 8): 50.000 µg/mL
7 | CC(C)(ON=C(C(=O)NC1C(=O)N2C(C(=O)O)=C(CSc3ccnc4ncnn34)CSC12)c1csc(N)n1)C(=O)NNC(=O)c1ccc(O)c(O)c1 (stereo not shown) [Example 38, 7-{2-[2-Amino-1,3-thiazol-4-yl]-2-[1-(3-(3,4-dihydroxybenzoyl)carbazoyl)-1-methylethoxyimino]acetamide}-3-[(s-triazolo[1,5-a]pyrimidin-7-yl)thiomethyl]-3-cephem-4-carboxylic acid.hydrochloride] |  | 3.13 | 1.56 | 0.012 | 0.025 | 0.012 | 3.13 |  | 25 | 25 |  | 0.39 | 1.56 | 0.1 | 0.1 | 0.39 | 0.025 | 0.78 |  |  | 
